Patent publication US20250051375A1, “ANTI-HIV COMPOUNDS” (Gilead Sciences, Inc., priority 2023, published 2025)
In brackets after ≈: the same amount, converted by molar mass.

Tests used:
[1] = Intestinal S9 Assay (human GI S9); type: in vitro ADME; conditions: 1.0 mg/mL S9 protein; for half-life at 2 μM: human, TRIS pH 7.4, read-out: Human GI S9 T½
Summary of the method: (§1)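 Pooled dog or human intestinal S9 at 1.0 mg/mL protein in TRIS buffer pH 7.4 with ZnCl2 and MgCl2; compound at 2 μM, sampled 0–120 min and quenched. Remaining parent by LC-MS peak area ratio; half-life from first-order exponential decline fit.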

[2] = PBS Stability Assay; type: physicochemical; conditions: buffer, pH 7.4, 2 μM, phosphate buffered saline pH 7.4; read-out: PBS T½
Summary of the method: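 Half-life derives from first-order exponential decline of % compound remaining, quantified by LC-MS analyte/internal-standard peak-area ratio. Compound (2 μM final) sat in pH 7.4 phosphate-buffered saline, with aliquots quenched into acidified acetonitrile containing labetalol from 0 to 120 min.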

[3] = system: HIV-1 IIIB strain; experiment: MT-4 HIV Wild Type Virus Infection Assay (IIIB Virus); type: cell-based; conditions: Human immunodeficiency virus 1, IIIB, MT4, 120 h, MT-4 cells acutely infected with HIV-1 IIIB, 5 day incubation, Cell-titer glo
Summary of the method: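 MT-4 cells at 2×10^6 cells/ml in RPMI/10% FBS were acutely infected with HIV-1 IIIB for 1 h at 37° C, diluted 25× and added to serially diluted compounds. After 5 days at 37° C, viability read by CellTiter-Glo luminescence; EC50 from dose-response curves.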

[4] = target: bovine intestinal alkaline phosphatase (Bos taurus (Bovine), UniProt P19111); experiment: BiALP: conversion by bovine intestinal alkaline phosphatase; type: in vitro ADME; conditions: 2 μM substrate, 100 ng/mL iALP, Tris pH 7.8, 37° C., 60 minutes
Summary of the method: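 LC-MS (positive mode) quantified analyte/internal-standard peak area ratios, referenced to 2 μM parent product. This followed a 60 min, 37° C reaction of 2 μM substrate in Tris buffer pH 7.8 (1 mM MgCl2, 1 mM ZnCl2) containing 100 ng/mL iALP or buffer alone, run in triplicate.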

[5] = Intestinal S9 Assay (dog GI S9); type: in vitro ADME; conditions: 1.0 mg/mL S9 protein; for half-life at 2 μM: dog, TRIS pH 7.4, read-out: Dog GI S9 T½
Summary of the method: as §1

[6] = Solubility in FaSSIF; conditions: 23 °C, pH 6.5, fassif, thermodynamic from solid
Summary of the method: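 Concentration measured by HPLC-UV after solid compound was dosed at 5 mg/mL into pH 6.5 fasted-state simulated intestinal fluid containing taurocholate and lecithin (4:1 molar) and vortexed.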

Chain of bovine intestinal alkaline phosphatase (P19111 20-506): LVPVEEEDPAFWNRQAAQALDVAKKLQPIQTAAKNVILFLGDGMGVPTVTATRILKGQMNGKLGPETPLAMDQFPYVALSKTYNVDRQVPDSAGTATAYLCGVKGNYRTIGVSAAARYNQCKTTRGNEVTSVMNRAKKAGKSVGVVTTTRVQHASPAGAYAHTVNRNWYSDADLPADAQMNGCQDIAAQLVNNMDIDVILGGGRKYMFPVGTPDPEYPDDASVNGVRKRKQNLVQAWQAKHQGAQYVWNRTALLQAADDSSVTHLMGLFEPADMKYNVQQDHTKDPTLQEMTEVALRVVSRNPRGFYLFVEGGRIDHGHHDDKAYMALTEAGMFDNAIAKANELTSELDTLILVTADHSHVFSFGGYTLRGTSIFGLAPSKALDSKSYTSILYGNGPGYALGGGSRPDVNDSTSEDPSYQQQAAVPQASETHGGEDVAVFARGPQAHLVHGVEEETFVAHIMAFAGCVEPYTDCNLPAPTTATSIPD

Structure (SMILES)	half-life at 2 μM [1] [h]	half-life at 2 μM [2] [h]	EC50 [3] [nM]	[Compound] [4] [nM]	half-life at 2 μM [5] [h]	solubility at 2 h [6] [µg/mL]	Human GI S9 [Intermediate A] ([1]; 2 μM, TRIS pH 7.4) [nM]	Human GI S9 [Intermediate A] % ([1]; 2 μM, TRIS pH 7.4) [%]	biALP Intermediate A or [Amprenavir] (% of total) [4]	[Intermediate A] or [Amprenavir] ([4]; parent formed) [nM]	Dog GI S9 [Intermediate A] ([5]; 2 μM, TRIS pH 7.4) [nM]	Dog GI S9 [Intermediate A] % ([5]; 2 μM, TRIS pH 7.4) [%]
COC(=O)N[C@H](C(=O)N[C@@H](Cc1ccc(C#Cc2cnc(N3CC4CCC(C3)N4C3COC3)nc2)cc1)[C@H](CN(Cc1c(F)cc(-c2ccn(C(F)F)n2)cc1F)NC(=O)[C@@H](NC(=O)OC)C(C)(C)C(F)(F)F)OC(=O)CC(C)(C)c1c(CC(=O)NC23CC(C(=O)O)(C2)C3)cc(C)cc1OP(=O)(O)O)C(C)(C)C(F)(F)F [Example 38]	7.82	5.16	305	1920.9	6.52	3500 (≈ 2200 µM)	–	–	–	–	–	–
COC(=O)N[C@H](C(=O)N[C@@H](Cc1ccc(C#Cc2cnc(N3CC4CCC(C3)N4C3COC3)nc2)cc1)[C@H](CN(Cc1c(F)cc(-c2ccn(C(F)F)n2)cc1F)NC(=O)[C@@H](NC(=O)OC)C(C)(C)C(F)(F)F)OC(=O)CC(C)(C)c1c(CC(=O)N[C@@H](Cc2ccc(C(=O)O)cc2)C(=O)O)cc(C)cc1OP(=O)(O)O)C(C)(C)C(F)(F)F [Example 45]	6.23	4.74	209	1787.4	0.993	4300 (≈ 2570 µM)	–	–	–	–	–	–
COC(=O)N[C@H](C(=O)N[C@@H](Cc1ccc(C#Cc2cnc(N3CC4CCC(C3)N4C3COC3)nc2)cc1)[C@H](CN(Cc1c(F)cc(-c2ccn(C(F)F)n2)cc1F)NC(=O)[C@@H](NC(=O)OC)C(C)(C)C(F)(F)F)OC(=O)CC(C)(C)c1c(CC(=O)NCc2ccc(C(=O)O)cc2)cc(C)cc1OP(=O)(O)O)C(C)(C)C(F)(F)F [Example 49]	5.5	5.66	224	2175	2.59	1220 (≈ 754 µM)	–	–	–	–	–	–
COC(=O)N[C@H](C(=O)N[C@@H](Cc1ccc(C#Cc2cnc(N3CC4CCC(C3)N4C3COC3)nc2)cc1)[C@H](CN(Cc1c(F)cc(-c2ccn(C(F)F)n2)cc1F)NC(=O)[C@@H](NC(=O)OC)C(C)(C)C(F)(F)F)OC(=O)CC(C)(C)c1c(CC(=O)NCc2ccc(C#N)cc2)cc(C)cc1OP(=O)(O)O)C(C)(C)C(F)(F)F [Example 51, (5S,10S,11S,14S)-8-(4-(1-(difluoromethyl)-1H-pyrazol-3-yl)-2,6-difluorobenzyl)-11-(4-((2-(8-(oxetan-3-yl)-3,8-diazabicyclo[3.2.1]octan-3-yl)pyrimidin-5-yl)ethynyl)benzyl)-3,6,13,16-tetraoxo-5,14-bis(1,1,1-trifluoro-2-methylpropan-2-yl)-2,17-dioxa-4,7,8,12,15-pentaazaoctadecan-10-yl 3-(2-(2-((4-cyanobenzyl)amino)-2-oxoethyl)-4-methyl-6-(phosphonooxy)phenyl)-3-methylbutanoate]	7.98	6.71	636	2331.5	8.29	< 1000	–	–	–	–	–	–
COC(=O)N[C@H](C(=O)N[C@@H](Cc1ccc(C#Cc2cnc(N3CC4CCC(C3)N4C3COC3)nc2)cc1)[C@H](CN(Cc1c(F)cc(-c2ccn(C(F)F)n2)cc1F)NC(=O)[C@@H](NC(=O)OC)C(C)(C)C(F)(F)F)OC(=O)CC(C)(C)c1c(CC(=O)Nc2ccc(/C=C/C(=O)O)cc2)cc(C)cc1OP(=O)(O)O)C(C)(C)C(F)(F)F [Example 52]	5.07	5.92	67.2	2131.6	2.59	< 1000	–	–	–	–	–	–
COC(=O)N[C@H](C(=O)N[C@@H](Cc1ccc(C#Cc2cnc(N3CC4CCC(C3)N4C3COC3)nc2)cc1)[C@H](CN(Cc1c(F)cc(-c2ccn(C(F)F)n2)cc1F)NC(=O)[C@@H](NC(=O)OC)C(C)(C)C(F)(F)F)OC(=O)CC(C)(C)c1c(CC(=O)NCc2cccc(C(=O)O)c2)cc(C)cc1OP(=O)(O)O)C(C)(C)C(F)(F)F [Example 53]	3.4	9.76	113	2028.9	2.41	< 1000	–	–	–	–	–	–
COC(=O)N[C@H](C(=O)N[C@@H](Cc1ccc(C#Cc2cnc(N3CC4CCC(C3)N4C3COC3)nc2)cc1)[C@H](CN(Cc1c(F)cc(-c2ccn(C(F)F)n2)cc1F)NC(=O)[C@@H](NC(=O)OC)C(C)(C)C(F)(F)F)OC(=O)CC(C)(C)c1c(CC(=O)N[C@@H](CCC(=O)O)C(=O)O)cc(C)cc1OP(=O)(O)O)C(C)(C)C(F)(F)F [Example 66]	3.19	4.86	164	1908	0.912	3890 (≈ 2410 µM)	367.6	26	9.4 % of total	197.1	965.9	68.6
COC(=O)N[C@H](C(=O)N[C@@H](Cc1ccc(C#Cc2cnc(N3CC4CCC(C3)N4C3COC3)nc2)cc1)[C@H](CN(Cc1c(F)cc(-c2ccn(C(F)F)n2)cc1F)NC(=O)[C@@H](NC(=O)OC)C(C)(C)C(F)(F)F)OC(=O)CC(C)(C)c1c(CC(=O)NCC(=O)O)cc(C)cc1OP(=O)(O)O)C(C)(C)C(F)(F)F [Example 74]	3.93	11.5	194	2044.2	1.03	3340 (≈ 2160 µM)	–	–	–	–	–	–
COC(=O)N[C@H](C(=O)N[C@@H](Cc1ccc(C#Cc2cnc(N3CC4CCC(C3)N4C3COC3)nc2)cc1)[C@H](CN(Cc1c(F)cc(-c2ccn(C(F)F)n2)cc1F)NC(=O)[C@@H](NC(=O)OC)C(C)(C)C(F)(F)F)OC(=O)CC(C)(C)c1c(CC(=O)N2CC[C@H](C(=O)O)C2)cc(C)cc1OP(=O)(O)O)C(C)(C)C(F)(F)F [Example 76]	6.16	4.89	333	1777	4.41	2230 (≈ 1410 µM)	–	–	–	–	–	–
COC(=O)N[C@H](C(=O)N[C@@H](Cc1ccc(C#Cc2cnc(N3CC4CCC(C3)N4C3COC3)nc2)cc1)[C@H](CN(Cc1c(F)cc(-c2ccn(C(F)F)n2)cc1F)NC(=O)[C@@H](NC(=O)OC)C(C)(C)C(F)(F)F)OC(=O)CC(C)(C)c1c(CC(=O)NCP(=O)(O)O)cc(C)cc1OP(=O)(O)O)C(C)(C)C(F)(F)F [Example 104]	2.1	4.75	17.6	1622.8	0.15	2730 (≈ 1730 µM)	–	–	–	–	–	–
COC(=O)N[C@H](C(=O)N[C@@H](Cc1ccc(C#Cc2cnc(N3CC4CCC(C3)N4C3COC3)nc2)cc1)[C@H](CN(Cc1c(F)cc(-c2ccn(C(F)F)n2)cc1F)NC(=O)[C@@H](NC(=O)OC)C(C)(C)C(F)(F)F)OC(=O)CC(C)(C)c1c(CC(=O)Nc2ccc(OC)c(S(=O)(=O)O)c2)cc(C)cc1OP(=O)(O)O)C(C)(C)C(F)(F)F [Example 107]	4.11	6.36	317	1468.1	2.21	3440 (≈ 2060 µM)	–	–	–	–	–	–
COC(=O)N[C@H](C(=O)N[C@@H](Cc1ccc(C#Cc2cnc(N3CC4CCC(C3)N4C3COC3)nc2)cc1)[C@H](CN(Cc1c(F)cc(-c2ccn(C(F)F)n2)cc1F)NC(=O)[C@@H](NC(=O)OC)C(C)(C)C(F)(F)F)OC(=O)CC(C)(C)c1c(CC(=O)N2CC[C@@H](C(=O)O)C2)cc(C)cc1OP(=O)(O)O)C(C)(C)C(F)(F)F [Example 112]	9.55	6.53	224	1708.7	6.05	3790 (≈ 2400 µM)	–	–	–	–	–	–
